The assay relates to AKT protein phosphorylated on serine 473 (P-AKT-S473) in PC3 human prostate carcinoma cells. As to the kind of experiment: pAKT expression in PC3 human prostate carcinoma cells measured by MSD Multi-spot Biomarker detection (test B). The format is cell-based. The conditions noted are these: Homo sapiens, PC-3, P-AKT-S473, PC3 cells, MSD sandwich immunoassay, 1 to 2 h incubation, absolute IC50. In short, it runs like this:
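PC3 cells exposed to compound for 1-2 h at 37 °C (0.1% DMSO; up to 10 μM), lysed, and P-AKT-S473 quantified by electrochemiluminescent sandwich immunoassay. Percent inhibition normalised to DMSO wells with background subtracted. Absolute IC50 from dose-response curves, averaged over 2 experiments.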

SMILES strings stand for the structures.

`COc1ccc(CCN2c3nc(N4CCOCC4)cc(=O)n3C[C@@]2(C)C(F)(F)F)cc1` [Example 1, (S)-1-[2-(4-Methoxyphenyl)ethyl]-2-methyl-7-morpholin-4-yl-2-trifluoromethyl-2,3-dihydro-1H-imidazo[1,2-a]pyrimidin-5-one] came in with a 50% inhibitory concentration (IC50) of 3 nM.

Source of the values: patent US8828997B2, “2,3-dihydro-1H-imidazo(1,2-a)pyrimidin-5-one derivatives, preparation thereof, and pharmaceutical use thereof” (Sanofi, priority 2009, dated 2014).
